Earlier results in patent US7807682B2, “Pyridyl cyanoguanidine compounds” (Leo Pharma A/S, priority 2001, dated 2010).

Assays:
[1] = system: normal human endothelial cells
[2] = system: human tumour cells; conditions: nude mice transplanted with human tumour cells, also paclitaxel-resistant tumour cells

SMILES: N#CNC(=Nc1ccncc1)NCCCCCCOc1ccc(Cl)cc1 [N-(6-(4-chlorophenoxy)hexyl)-N′-cyano-N″-(4-pyridyl)guanidine]
- antiproliferative activity on normal human endothelial cells [1]: considerably less antiproliferative activity
- antitumour activity in vivo [2]: substantial antitumour activity
